{"source": "patent US8119694B2", "about": "“High concentration local anesthetic formulations” (priority 2008, dated 2012)", "assay": "Compatibility study of drug at 40% w/w in solvent blends", "assay_type": "physicochemical", "settings": "two week samples at accelerated conditions versus initial samples", "experimental": "The solubility and compatibility of lidocaine and lidocaine HCl in solvents typically used in topical pharmaceutical products was assessed in order to direct the formulation development efforts.\nInitially, the solubility of lidocaine and lidocaine hydrochloride was evaluated in single solvents with varying lipophilicity. […] Based on the single solvent data, a compatibility study was initiated to evaluate the chemical stability of the drug at a concentration of 40% w/w in a variety of solvent blends that would form the base of potential prototype gel or cream formulations.", "data": [{"smiles": "CCN(CC)CC(=O)Nc1c(C)cccc1C", "note": "[lidocaine]", "values": [{"measurement": "chemical compatibility (potency) in solvent blends", "result": "absence of a drop in potency"}]}]}
